In patent US20070142433A1, “Angiogenesis-affecting compounds and methods of use thereof” (priority 2004, published 2007):
Counter-ions that a name gives are not always drawn. Like-named read-outs stand apart in the source and are kept apart here.

Assays:
HUVEC = assay: Cytoviability assay (resazurin), HUVEC; type: cell-based; conditions: Homo sapiens, 24 hours after treatment, read-out: IC50 cell viability HUVEC
Method: (§1) A cell viability assay based on cellular reduction of resazurin to the fluorescent product resorufin was performed. Viable cells can metabolize and reduce the dye, whereas dead cells rapidly lose the capacity to do so, making the increase in fluorescence directly proportional to the number of viable cells. The tested compounds were added in a log2 titration and viable cells were analyzed 24 hours after treatment. The fluorescence was determined at an excitation wavelength of 560 nm and an emission wavelength of 590 nm. The percentage of viable cells in relation to the untreated control proliferation was calculated. […] Perhexiline results are depicted graphically in FIGS. 6A-6C and Erythromycin results in FIGS. 7A-7C.

HUVEC sprouting = assay: Spheroid-based 3D angiogenesis assay (IC50, alone or with VEGFR-2 inhibitor); type: cell-based, human; conditions: Homo sapiens, HUVEC
Text: Therefore, the assay was applied to test compounds alone or in combination with a VEGFR-2 inhibitor to address changes in IC50. […] The VEGFR-2 inhibitor was applied at a concentration close to the IC50.

SMC [1] = assay: Cell proliferation assay (crystal violet), SMC; type: cell-based; conditions: 72 hours, OD 595 nm
Method: (§2) In order to further confirm the surprising results described above, the compounds were tested in a cell proliferation assay. Crystal violet was used to measure cell proliferation; this basic dye stains cell nuclei and provides a sensitive, rapid evaluation. Light absorption of unstained or destained cell layers is negligible, making it possible to perform cell number measurements in wells. Six cell types (HUVEC, HDMEC, SMC, Fibroblast, A375 and RENCA) were plated and treated with the compounds in a log2 titration for 72 hours. The optimal cell number for each cell type was determined and optical density (OD) was measured at 595 nm. Each data point was measured in quadruplicate. The assay was stopped after 72 hours and subsequently analyzed. The OD-value of the plated cells before addition of the compounds was subtracted from all OD-values obtained after treatment. The percentage in relation to control proliferation was then calculated. Negative values therefore represent a count of fewer cells than were plated. The IC50 is given below in Table 1. Results are shown as a percentage in relation to the control proliferation. The IC50 were calculated using GraphPad Prism software (GraphPad Software, Inc.). Perhexiline results are depicted graphically in FIGS. 4A-4C and Erythromycin results in FIGS. 5A-5C.

[2] = test system: NHDF (human dermal fibroblasts) scattering; assay: NHDF spheroid evaluation (fibroblast scattering); type: cell-based
Method: Where the test compound was classified as an inhibitor or stimulator, a second screening process was performed. In the second screen, the test substance was thawed and 5 mM of the substance was diluted to a 10 fold concentrated working solution (100 μM) in endothelial cell basal medium. No supplements were used in the basal medium.
Instead of HUVEC, spheroids were prepared by pipetting 400 human dermal fibroblasts (NHDF) into each well of nonadhesive 96-well plates. Prior to use the NHDF were cultured according to the supplier's instructions (PromoCell, Heidelberg, Germany). The cells were allowed to aggregate overnight into spheroids (Korff and Augustin: J Cell Biol 143: 1341-52, 1998). After aggregation, 48 NHDF spheroids were harvested. Each of the harvested spheroids was seeded in 900 μl of methocel-collagen solution and pipetted into an individual well of a 24-well plate to allow collagen gel polymerization.
Thirty (30) minutes after seeding, the test substance was added. The working dilution (10 fold concentration) was utilized, 100 μl was pipetted on top of the polymerized collagen gel in each well. The plates were then incubated at 37° C. for 24 hours. At the end of the incubation period the plates were fixed by adding 1 ml paraformaldehyde (10%) to each well.
The NHDF spheroids were microscopically assayed for fibroblast scattering intensity. […] For exemplary results, see FIG. 1.

SMC [3] = assay: Cytoviability assay (resazurin), SMC; type: cell-based; conditions: 24 hours after treatment, read-out: IC50 cell viability SMC
Method: as §1

[4] = test system: Alexander cells (PLC/PRF/5) subcutaneous tumor; assay: Hepato-Cellular Carcinoma Model (HCC) in vivo study, subcutaneous Alexander cells; set-up: species or system NMRI nu/nu mice
Method: Monolayers of Alexander cells can be grown in 85% Dulbecco's Modified Eagle's Medium (DMEM), 15% Fetal Bovine Serum (FBS), 4 mM L-glutamine, 100 units penicillinG/ml, and 100 μg of streptomycin-sulfate/ml. The cells can be cultured in a humidified atmosphere of 90% air and 10% carbon dioxide at 37° C. Media may preferably be changed every 4 days.
Six to eight week old female NMRI^−nu/nu mice could be utilized. The Alexander cells can be implanted in the left flank region of the mice, for example, by injecting 4×10^7 cells in 0.2 ml aliquots into the subcutaneous space of the left flank using a 29 G needle syringe. After inoculation the appearing subcutaneous tumours can be measured by callipering and multiplying the distances of all three dimensions.
Therapy can be initiated after the tumor size has reached a volume of approximately 100 mm^3 (day 1 of the study), and continue for about 21 days.
As shown, Group 1 would serve as control, where the animals would receive no further treatment after injection of Alexander cells.
After approximately 21 days of treatment, mice could be sacrificed and tumors collected and optionally stored appropriately at −80° C. For histological examination of the tumor vasculature, cryosections of the tissues (thickness of 5-10 μm) can be taken. For visualization of the blood vessels, immunohistochemical staining for CD 31 (PECAM-1) can be performed, and vessels counted microscopically using a defined magnification (×200).

RENCA = assay: Cytoviability assay (resazurin), RENCA; type: cell-based; conditions: 24 hours after treatment, read-out: IC50 cell viability RENCA
Method: as §1

A375 [5] = assay: Cell proliferation assay (crystal violet), A375; type: cell-based; conditions: Homo sapiens, A-375, 72 hours, OD 595 nm
Method: as §2

A375 [6] = assay: Cytoviability assay (resazurin), A375; type: cell-based; conditions: Homo sapiens, A-375, 24 hours after treatment, read-out: IC50 cell viability A375
Method: as §1

HDMEC = assay: Cytoviability assay (resazurin), HDMEC; type: cell-based; conditions: 24 hours after treatment, read-out: IC50 cell viability HDMEC
Method: as §1

Question: Which IC50 (HUVEC) does the source give for `C1CCC(C(CC2CCCCN2)C2CCCCC2)CC1` (stereo not shown) [Perhexiline, Perhexiline maleate] here?
Answer: 8.4 µM

Question: And the IC50 (HUVEC sprouting; compound alone, read-out: IC50 3D angiogenesis assay without VEGFR-2 inhibitor)?
Answer: 5.4 µM

Question: And the IC50 (HUVEC sprouting; read-out: IC50 in vitro 3D sprouting of HUVEC)?
Answer: 1.5 µM

Question: What about the IC50 (SMC [1]) of the same compound?
Answer: 14 µM

Question: And the IC50 ([2]; Homo sapiens, NHDF)?
Answer: 19 µM

Question: What about the “fibroblast scattering (invasion) effect” value ([2]; NHDF spheroids in collagen gel, no supplements, 24 hours) of the same compound?
Answer: no fibroblast invasion effect

Question: And the IC50 (SMC [3])?
Answer: 32 µM

Question: What about the “tumor growth compared to control” value ([4]; subcutaneous Alexander cell tumors in mice, about 21 days of treatment, FIGS. 28-30) of the same compound?
Answer: reduced

Question: What about the vessel density ([4]; tumor vasculature, FIG. 36) of the same compound?
Answer: significant effect on vessel density

Question: And the IC50 (RENCA)?
Answer: 5 µM

Question: What about the IC50 (A375 [5]) of the same compound?
Answer: 25 µM

Question: And the IC50 (A375 [6])?
Answer: 10 µM

Question: What about the IC50 (HDMEC) of the same compound?
Answer: 8 µM
